Patent US8648195B2, “Stabilized crystal of 2-ethyl-3,7-dimethyl-6-(4-(trifluoromethoxy)phenoxy)quinoline-4-yl methyl carbonate, process for producing the crystal, and agricultural chemical composition comprising the crystal” (priority 2010, dated 2014)

Legend:
[1] = test system: Lepidoptera, Hemiptera, Coleoptera, Acari, Hymenoptera, Orthoptera, Diptera, and Order Thysanoptera; details: patent documents 5 and 6; cited from earlier work
[2] = Storage test of aqueous suspension formulations (54° C., 2 weeks): particle size and properties; assay type: physicochemical; details: conclusion from storage test
Procedure: The aqueous suspension formulations of Example 2 and Comparative Example 1 were stored at 54° C. for 2 weeks, and a change in quality between before and after the storage was observed. The size of crystals before and after the storage test was measured with a laser diffraction particle size distribution measuring apparatus and under an optical microscope. [Measurement with Laser Diffraction Particle Size Distribution Measuring Apparatus] Apparatus used: Laser diffraction particle size distribution measuring apparatus SALD-2200 manufactured by Shimadzu Corp The floable formulation diluted with water after the storage test was used for the measurement of particle size with the above measuring apparatus. The A crystal form after the storage could not be suspended in water, and, thus, instead of the suspension, before use in test, was exposed to ultrasonic waves until coarse particle nuclei disappeared. [Measurement Under Optical Microscope] Apparatus used: Digital microscope VHX-200 manufactured by Keyence Corp. Images of the water-diluted floable formulations after the storage test were taken with the apparatus (magnification: 1500 times). The major axes of crystals in the images were measured, and the average was calculated. […]

| Compound | Insecticidal activity [1] | Physicochemical and storage stability of the crystal form [2] |
| --- | --- | --- |
| CCc1nc2cc(C)c(Oc3ccc(OC(F)(F)F)cc3)cc2c(OC(=O)OC)c1C [Compound I, 2-Ethyl-3,7-dimethyl-6-(4-(trifluoromethoxy)phenoxy)-quinoline-4-yl methyl carbonate] | high insecticidal activity |  |
| CCc1nc2cc(C)c(Oc3ccc(OC(F)(F)F)cc3)cc2c(OC(=O)OC)c1C [Example 1, 2-ethyl-3,7-dimethyl-6-(4-(trifluoromethoxy)phenoxy)quinoline-4-yl methyl carbonate] |  | high storage stability |
